Patent publication US12479827B2, “Heteroaromatic carboxamide derivatives as plasma kallikrein inhibitors” (Boehringer Ingelheim International GmbH, priority 2020, dated 2025)

Legend:
Human PKK = target: T1, Human PKK (Homo sapiens, UniProt P03952); experiment: Inhibition of PKK using an endpoint assay (human PKK); assay type: biochemical; settings: fluorogenic substrate H-Pro-Phe-Arg-AMC, 1 h room temperature, method names human or rat PKK, table does not say which
T1 construct: purchased Enzyme Research Laboratories
T1 sequence (P03952 20-390 limits assumed): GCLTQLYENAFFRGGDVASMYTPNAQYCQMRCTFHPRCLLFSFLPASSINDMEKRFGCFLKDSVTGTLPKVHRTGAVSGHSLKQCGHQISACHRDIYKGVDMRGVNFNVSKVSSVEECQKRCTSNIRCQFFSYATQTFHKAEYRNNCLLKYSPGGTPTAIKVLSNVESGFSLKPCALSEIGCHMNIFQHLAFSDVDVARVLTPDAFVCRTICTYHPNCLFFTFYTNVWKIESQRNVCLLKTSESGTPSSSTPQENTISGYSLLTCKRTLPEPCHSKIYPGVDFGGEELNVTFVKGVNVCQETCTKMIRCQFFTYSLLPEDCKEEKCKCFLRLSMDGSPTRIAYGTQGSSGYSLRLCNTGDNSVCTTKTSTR
T1 sequence (P03952 391-638 limits assumed): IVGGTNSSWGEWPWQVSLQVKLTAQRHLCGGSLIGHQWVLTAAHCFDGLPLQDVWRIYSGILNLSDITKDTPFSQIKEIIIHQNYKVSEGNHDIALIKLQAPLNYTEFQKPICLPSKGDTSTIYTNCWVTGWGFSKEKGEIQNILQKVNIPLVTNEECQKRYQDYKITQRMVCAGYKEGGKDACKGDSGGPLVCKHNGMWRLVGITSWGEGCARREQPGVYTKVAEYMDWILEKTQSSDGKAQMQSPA
Experimental: The ability of compounds of formula (I) to inhibit plasma kallikrein (PKK), Factor XIIa (FXIIa), Factor XIa (FXIa), Factor Xa (FXa), Factor IIa (alpha-thrombin; FIIa), plasmin, trypsin, tissue kallikrein 1 (TK1), Factor VIIa (FVIIa), or FVIIa complexed with Tissue Factor, phospholipids and CaCl2 (FVIIa/TF/PL/CaCl2) is determined using the following biochemical assays in assay buffer (100 mM Tris, 150 mM NaCL, adjusted to a pH of 7.8 with HCl, and containing 0.1% (w/v) BSA and 0.05% (v/v) Tween20) in the presence of 1% (v/v) DMSO:
Subsequently, PPACK II (Calbiochem) is added as a stop solution to achieve a final concentration of 1 μM and fluorescence is measured using an Envision Reader (PerkinElmer) with the wavelength excitation setting of 355 nm and the wavelength emission setting of 460 nm.

[1] = target: T2, PKK in kaolin activated human platelet poor plasma (Homo sapiens, UniProt P03952); experiment: Inhibition of PKK in kaolin activated human PPP; assay type: biochemical; settings: 25-750 μg/mL kaolin, global fit, text b200 calls the values IC90;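 further: readout is the rate of fluorogenic substrate cleavage in rfu per min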
T2 construct: Platelet poor plasma (PPP) obtained from human wholeblood; from tissue
T2 sequence (P03952 391-638 limits assumed): as above
T2 sequence (P03952 20-390 limits assumed): as the sequence (P03952 20-390 limits assumed) above
Experimental: Platelet poor plasma (PPP) obtained from human wholeblood, anticoagulated with Na-Citrate, is incubated with various concentrations of the test compound together with either 25, 75, 250, or 750 μg/mL kaolin in assay buffer for 20 min at 37° C. such that for each kaolin dose used a concentration response is obtained for the test compound.

SMILES	IC50 (Human PKK) [nM]	IC50 [1] [nM]
Cn1cnc2c1CC[C@H]2NC(=O)c1cnn(Cc2ccc(N3CC4C(C3)C4(F)F)cc2F)c1 (stereo partly drawn) [Example 213, 1-[(4-{6,6-difluoro-3-azabicyclo[3.1.0]hexan-3-yl}-2-fluorophenyl)methyl]-N-[(4R)-1-methyl-1H,4H,5H,6H-cyclopenta[d]imidazol-4-yl]-1H-pyrazole-4-carboxamide]	2.3	621
Cn1cnc2c1CC[C@H]2NC(=O)c1cn(Cc2ccc(N3CC4CC4C3)cc2Br)cn1 (stereo partly drawn) [Example 204, 1-[(4-{3-azabicyclo[3.1.0]hexan-3-yl}-2-bromophenyl)methyl]-N-[(4R)-1-methyl-1H,4H,5H,6H-cyclopenta[d]imidazol-4-yl]-1H-imidazole-4-carboxamide]	1.5	818
Cc1nc(N2CC3C(C2)C3(F)F)ccc1Cc1ccc(C(=O)N[C@@H]2CCc3c2ncn3C)s1 (stereo partly drawn) [Example 187, 5-[(6-{6,6-Difluoro-3-azabicyclo[3.1.0]hexan-3-yl}-2-methylpyridin-3-yl)methyl]-N-[(4R)-1-methyl-1H,4H,5H,6H-cyclopenta[d]imidazol-4-yl]thiophene-2-carboxamide]	12.2	2450
Cn1cnc2c1CC[C@H]2NC(=O)c1cn(Cc2ccc(N3CC4C(C3)C4(F)F)cc2F)cn1 (stereo partly drawn) [Example 212, 1-[(4-{6,6-difluoro-3-azabicyclo[3.1.0]hexan-3-yl}-2-fluorophenyl)methyl]-N-[(4R)-1-methyl-1H,4H,5H,6H-cyclopenta[d]imidazol-4-yl]-1H-imidazole-4-carboxamide]	2.1	1890
CCCc1nc(N2CC3C(C2)C3(F)F)ccc1Cn1cc(C(=O)N[C@@H]2CCc3c2ncn3C)cn1 (stereo partly drawn) [Example 69, 1-[(6-{6,6-Difluoro-3-azabicyclo[3.1.0]hexan-3-yl}-2-propylpyridin-3-yl)methyl]-N-[(4R)-1-methyl-1H,4H,5H,6H-cyclopenta[d]imidazol-4-yl]-1H-pyrazole-4-carboxamide]	0.9	328
Cn1cnc2c1CC[C@H]2NC(=O)c1cnn(Cc2cnc(N3CC4CC4C3)nc2CO)c1 (stereo partly drawn) [Example 62, 1-[(2-{3-Azabicyclo[3.1.0]hexan-3-yl}-4-(hydroxymethyl)-pyrimidin-5-yl)methyl]-N-[(4R)-1-methyl-1H,4H,5H,6H-cyclopenta[d]imidazol-4-yl]-1H-pyrazole-4-carboxamide]	14	769
COCc1nc(N2CC3C(C2)C3(F)F)ccc1Cn1cc(C(=O)N[C@@H]2CCc3c2ncn3C)cn1 (stereo partly drawn) [Example 2, 1-[(6-{6,6-Difluoro-3-azabicyclo[3.1.0]hexan-3-yl}-2-(methoxymethyl)pyridin-3-yl)methyl]-N-[(4R)-1-methyl-1H,4H,5H,6H-cyclopenta[d]-imidazol-4-yl]-1H-pyrazole-4-carboxamide]	3.1	253
Cn1cnc2c1CC[C@H]2NC(=O)c1c[nH]c(Cc2ccc(N3CC4C(C3)C4(F)F)nc2Cl)c1 (stereo partly drawn) [Example 159, 5-[(2-Chloro-6-{6,6-difluoro-3-azabicyclo-[3.1.0]hexan-3-yl}pyridin-3-yl)methyl]-N-[(4R)-1-methyl-1H,4H,5H,6H-cyclopenta[d]imidazol-4-yl]-1H-pyrrole-3-carboxamide]	3.5	1140
Cn1cnc2c1CC[C@H]2NC(=O)c1cn(Cc2ccc(N3CC4(CC4)C3)nc2Cl)nn1 [Example 5, 1-[(6-{5-Azaspiro[2.3]hexan-5-yl}-2-chloropyridin-3-yl)methyl]-N-[(4R)-1-methyl-1H,4H,5H,6H-cyclo-penta[d]imidazol-4-yl]-1H-1,2,3-triazole-4-carboxamide]	1.1	278
CCOCc1nc(N2CC3C(C2)C3(F)F)ccc1Cn1cc(C(=O)N[C@@H]2CCc3c2ncn3C)cn1 (stereo partly drawn) [Example 179, 1-[(6-{6,6-Difluoro-3-azabicyclo[3.1.0]hexan-3-yl}-2-(ethoxymethyl)pyridin-3-yl)methyl]-N-[(4R)-1-methyl-1H,4H,5H,6H-cyclopenta[d]imidazol-4-yl]-1H-pyrazole-4-carboxamide]	4.2	389
Cn1cnc2c1CC[C@H]2NC(=O)c1cc(Cc2ccc(N3CC4C(C3)C4(F)F)nc2Cl)no1 (stereo partly drawn) [Example 150, 3-[(2-Chloro-6-{6,6-difluoro-3-azabicyclo[3.1.0]hexan-3-yl}pyridin-3-yl)methyl]-N-[(4R)-1-methyl-1H,4H,5H,6H-cyclopenta-[d]imidazol-4-yl]-1,2-oxazole-5-carboxamide]	1	373
Cn1cnc2c1CC[C@H]2NC(=O)c1cn(Cc2ccc(N3CC4CC4C3)cc2CO)cn1 (stereo partly drawn) [Example 207, 1-[(4-{3-azabicyclo[3.1.0]hexan-3-yl}-2-(hydroxymethyl)phenyl)methyl]-N-[(4R)-1-methyl-1H,4H,5H,6H-cyclopenta[d]imidazol-4-yl]-1H-imidazole-4-carboxamide]	3.2	745
Cc1nc(N2CC3C(C2)C3(F)F)ccc1Cn1ccc(C(=O)N[C@@H]2CCc3c2ncn3C)c1 (stereo partly drawn) [Example 141, 1-[(6-{6,6-Difluoro-3-azabicyclo[3.1.0]hexan-3-yl}-2-methylpyridin-3-yl)methyl]-N-[(4R)-1-methyl-1H,4H,5H,6H-cyclopenta[d]imidazol-4-yl]-1H-pyrrole-3-carboxamide]	2	621
Cn1cnc2c1CC[C@H]2NC(=O)c1cn(Cc2cnc(N3CC4CC4C3)nc2C(F)F)cn1 (stereo partly drawn) [Example 29, 1-[(2-{3-Azabicyclo[3.1.0]hexan-3-yl}-4-(difluoromethyl)-pyrimidin-5-yl)methyl]-N-[(4R)-1-methyl-1H,4H,5H,6H-cyclopenta[d]imidazol-4-yl]-1H-imidazole-4-carboxamide]	2.6	336

Now from value to molecule:

IC50 (Human PKK) [nM]	IC50 [1] [nM]	SMILES
2.8	612	Cn1cnc2c1CC[C@H]2NC(=O)c1cnn(Cc2ccc(N3CC4CC4C3)nc2C(F)F)c1 (stereo partly drawn) [Example 48, 1-[(6-{3-Azabicyclo[3.1.0]hexan-3-yl}-2-(difluoromethyl)-pyridin-3-yl)methyl]-N-[(4R)-1-methyl-1H,4H,5H,6H-cyclopenta[d]imidazol-4-yl]-1H-pyrazole-4-carboxamide]
0.9	308	Cn1cnc2c1CC[C@H]2NC(=O)c1cnn(Cc2ccc(N3CC4CC4C3)nc2C(F)F)c1 (stereo partly drawn) [Example 43, 1-[(6-{3-Azabicyclo[3.1.0]hexan-3-yl}-2-(difluoromethyl)-pyridin-3-yl)methyl]-N-[(4R)-1-methyl-1H,4H,5H,6H-cyclopenta[d]imidazol-4-yl]-1H-pyrazole-4-carboxamide]
1.8	443	CCn1nc(Cc2ccc(N3CC4CC4C3)nc2C)cc1C(=O)N[C@@H]1CCc2c1ncn2C (stereo partly drawn) [Example 164, 3-[(6-{3-Azabicyclo[3.1.0]hexan-3-yl}-2-methylpyridin-3-yl)methyl]-1-ethyl-N-[(4R)-1-methyl-1H,4H,5H,6H-cyclopenta[d]imidazol-4-yl]-1H-pyrazole-5-carboxamide]
0.6	297	CCc1nc(N2CC3CC3C2)ccc1Cn1cc(C(=O)N[C@@H]2CCc3c2ncn3C)nn1 (stereo partly drawn) [Example 101, 1-[(6-{3-Azabicyclo[3.1.0]hexan-3-yl}-2-ethylpyridin-3-yl)methyl]-N-[(4R)-1-methyl-1H,4H,5H,6H-cyclopenta[d]imidazol-4-yl]-1H-1,2,3-triazole-4-carboxamide]
3.6	776	COCc1nc(N2CC3CC3C2)ccc1Cc1cc(C(=O)N[C@@H]2CCc3c2ncn3C)[nH]n1 (stereo partly drawn) [Example 219, 3-[(6-{3-Azabicyclo[3.1.0]hexan-3-yl}-2-(methoxymethyl)pyridin-3-yl)methyl]-N-[(4R)-1-methyl-1H,4H,5H,6H-cyclopenta[d]imidazol-4-yl]-1H-pyrazole-5-carboxamide]
0.9	1190	Cn1cnc2c1CC[C@H]2NC(=O)c1cn(Cc2ccc(N3CC4CC4C3)nc2Br)nn1 (stereo partly drawn) [Example 34, 1-[(6-{3-Azabicyclo[3.1.0]hexan-3-yl}-2-bromopyridin-3-yl)methyl]-N-[(4R)-1-methyl-1H,4H,5H,6H-cyclopenta-[d]imidazol-4-yl]-1H-1,2,3-triazole-4-carboxamide]
7.1	6270	Cc1nc(N2CC3CC3C2)ccc1Cc1cc(C(=O)N[C@@H]2CCc3c2ncn3C)co1 (stereo partly drawn) [Example 182, 5-[(6-{3-Azabicyclo[3.1.0]hexan-3-yl}-2-methylpyridin-3-yl)methyl]-N-[(4R)-1-methyl-1H,4H,5H,6H-cyclopenta[d]imidazol-4-yl]furan-3-carboxamide]
0.7	221	Cn1cnc2c1CC[C@H]2NC(=O)c1cn(Cc2ccc(N3CC4CC4C3)nc2C(F)F)cn1 (stereo partly drawn) [Example 64, 1-[(6-{3-Azabicyclo[3.1.0]hexan-3-yl}-2-(difluoromethyl)-pyridin-3-yl)methyl]-N-[(4R)-1-methyl-1H,4H,5H,6H-cyclopenta[d]imidazol-4-yl]-1H-imidazole-4-carboxamide]
1.1	231	CCc1nc(N2CC3CC3C2)ccc1Cc1cc(C(=O)N[C@@H]2CCc3c2ncn3C)n(CC)n1 (stereo partly drawn) [Example 162, 3-[(6-{3-Azabicyclo[3.1.0]hexan-3-yl}-2-ethylpyridin-3-yl)methyl]-1-ethyl-N-[(4R)-1-methyl-1H,4H,5H,6H-cyclopenta[d]imidazol-4-yl]-1H-pyrazole-5-carboxamide]
